Measured values as given in ChEMBL document CHEMBL1201862, “PubChem BioAssay data set” (2004).
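Cultured in 96-well plates, cells were exposed to test compound for 48 hours across five concentrations. The concentration for 50% growth inhibition is given as GI50.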 The source made the active and inactive calls. No stated cut-off is given here; in the data, active = GI50 up to about 1.1 µM and inactive = higher.

Assays:
Assay in all cases: NCI tumour cell line growth inhibition, 48 h
HCT-15 = system: HCT-15
M14 = system: M14
KM12 = system: KM12
SK-MEL-28 = system: SK-MEL-28
NCI-H23 = system: NCI-H23
MOLT-4 = system: MOLT-4
UO-31 = system: UO-31
SN12C = system: SN12C
OVCAR-3 = system: OVCAR-3
SK-OV-3 = system: SK-OV-3
NCI-H460 = system: NCI-H460
HOP-62 = system: HOP-62
UACC-257 = system: UACC-257
HT-29 = system: HT-29
OVCAR-4 = system: OVCAR-4
RXF 393 = system: RXF 393
SF-539 = system: SF-539

Row | SMILES | GI50 (HCT-15) [µM] | GI50 (M14) | GI50 (KM12) | GI50 (SK-MEL-28) | GI50 (NCI-H23) | GI50 (MOLT-4) | GI50 (UO-31) | GI50 (SN12C) | GI50 (OVCAR-3) | GI50 (SK-OV-3) | GI50 (NCI-H460) | GI50 (HOP-62) | GI50 (UACC-257) | GI50 (HT-29) | GI50 (OVCAR-4) | GI50 (RXF 393) | GI50 (SF-539)
1 | O=c1c2ccc3cccc4c(=O)cc(c5ccccc15)-c2c34 | > 100 | > 100 µM (inactive) | > 100 µM (inactive) | > 100 µM (inactive) | 31.7 µM (inactive) | 59.2 µM (inactive) | > 100 µM (inactive) | > 100 µM (inactive) | 28.2 µM (inactive) | > 100 µM (inactive) | > 100 µM (inactive) | > 100 µM (inactive) | > 100 µM (inactive) | > 100 µM (inactive) | > 100 µM (inactive) | > 100 µM (inactive) | 
2 | COc1cc([C@@H]2c3cc4c(cc3[C@@H](NCc3cccc(F)c3)C3COC(=O)[C@@H]32)OCO4)cc(OC)c1O (some centres not stated) | 3.57 | 4.9 µM (inactive) | 7.01 µM (inactive) | 8.61 µM (inactive) | 1.95 µM (inactive) | 0.364 µM (active) | 5.57 µM (inactive) | 2.14 µM (inactive) | 12.2 µM (inactive) | 4.19 µM (inactive) | 0.37 µM (active) | 1.51 µM (inactive) | 10.8 µM (inactive) | 8.61 µM (inactive) | 30.6 µM (inactive) | 8.85 µM (inactive) | 2.52 µM (inactive)
3 | NC(=O)N/N=C/C(=C/Nc1ccccc1)[N+](=O)[O-] | > 100 | > 100 µM (inactive) |  | > 100 µM (inactive) | > 100 µM (inactive) | 93.8 µM (inactive) | > 100 µM (inactive) | > 100 µM (inactive) | > 100 µM (inactive) | > 100 µM (inactive) | 89.1 µM (inactive) | > 100 µM (inactive) | > 100 µM (inactive) | > 100 µM (inactive) | > 100 µM (inactive) | > 100 µM (inactive) | 
4 | CCCC1C(=O)C(CC)Cc2c(OC)ccc(OC)c21 (configuration not stated) | > 100 | > 100 µM (inactive) | > 100 µM (inactive) | > 100 µM (inactive) |  | > 100 µM (inactive) | > 100 µM (inactive) | > 100 µM (inactive) | > 100 µM (inactive) | > 100 µM (inactive) | > 100 µM (inactive) | > 100 µM (inactive) | > 100 µM (inactive) | > 100 µM (inactive) | > 100 µM (inactive) | > 100 µM (inactive) | > 100 µM (inactive)
5 | CC(=O)Oc1cc(OC(C)=O)c2cc3c(cc2c1OC(C)=O)C(=O)C1(CCCC1)C3=O | 17.8 | 17.7 µM (inactive) |  | 15.6 µM (inactive) | 17.7 µM (inactive) | 3.18 µM (inactive) | 16.3 µM (inactive) | 17.7 µM (inactive) | 19.3 µM (inactive) | 17.6 µM (inactive) | 17.5 µM (inactive) | 21.4 µM (inactive) |  | 12.2 µM (inactive) | 18.6 µM (inactive) | 17.2 µM (inactive) | 
6 | CCOC(=O)c1cnc2c(ccc3ncccc32)c1NCCCN(CC)CC | 80.5 | 19.1 µM (inactive) | 38.3 µM (inactive) | 50 µM (inactive) | 87.9 µM (inactive) | 23 µM (inactive) | 76.4 µM (inactive) |  | > 100 µM (inactive) | > 100 µM (inactive) | 35.2 µM (inactive) | > 100 µM (inactive) | > 100 µM (inactive) | 39.1 µM (inactive) | 30 µM (inactive) |  | > 10 µM (inactive)
7 | O=C(O)CCC(NC(=O)c1ccccc1)C(=O)O (configuration not stated) | > 100 | > 100 µM (inactive) | > 100 µM (inactive) | > 100 µM (inactive) | > 100 µM (inactive) | > 100 µM (inactive) | > 100 µM (inactive) | > 100 µM (inactive) | > 100 µM (inactive) | > 100 µM (inactive) | > 100 µM (inactive) | > 100 µM (inactive) | > 100 µM (inactive) | > 100 µM (inactive) | > 100 µM (inactive) | > 100 µM (inactive) | > 100 µM (inactive)
8 | COc1ccc(C23c4ccc(OC)cc4CC2(c2ccc([N+](=O)[O-])cc2)Cc2cc(OC)ccc23)cc1 (configuration not stated) | > 93.5 | > 46.2 µM (inactive) | > 35.8 µM (inactive) | > 17.9 µM (inactive) | > 26.4 µM (inactive) | > 36.2 µM (inactive) | > 24.3 µM (inactive) | > 50.6 µM (inactive) | > 39.2 µM (inactive) | > 28.2 µM (inactive) | > 89.1 µM (inactive) | > 14.1 µM (inactive) | > 51.3 µM (inactive) | > 23.3 µM (inactive) | > 25.1 µM (inactive) |  | > 14.2 µM (inactive)
9 | COc1nc(NC2OC(COC(C)=O)C(OC(C)=O)C(OC(C)=O)C2OC(C)=O)c2c(OC(C)=O)cc(=O)oc2n1 (configuration not stated) | > 100 | > 100 µM (inactive) | > 100 µM (inactive) |  | > 100 µM (inactive) | > 100 µM (inactive) | > 100 µM (inactive) | > 100 µM (inactive) | > 100 µM (inactive) | > 100 µM (inactive) | 13.8 µM (inactive) | > 100 µM (inactive) | > 100 µM (inactive) | > 100 µM (inactive) | > 100 µM (inactive) | > 100 µM (inactive) | > 100 µM (inactive)
